Counter-ions that a name gives are not always drawn. Marks after values point to notes of the source that are not given here.
What was measured:
male rats [1] = assay: Antagonism of XVIb-induced erections by comparative compounds in rats; format: in vivo, SD rats; details: for antagonism of the erectile promoting actions of XVIb: injected 30 minutes prior to XVIb 16 mg/kg ip, pindolol 0.1-3, scopolamine 0.1-3.0, haloperidol 0.01-0.3, ketanserin 0.1-3.0 mg/kg
Experimental: Male SD rats (300-500 g; n=6 per group) were injected with (±)-Pindolol, scopolamine, haloperidol, or ketanserin, 30 minutes prior to injection of a single dose of XVIb (16 mg/kg, ip) or saline.

male primates = assay: Sexual behavior in male primates, paired observation study (penile response grades); format: in vivo, macaca fascilaris; details: 1.0 mg/kg ip; N=3; observed 1 hour
Experimental: Monkeys used for testing were separated from the cluster of cages and treated and observed in pairs in the middle of the housing environment.
N=3 for all drug-treated animals, while N=18 for saline-treated animals. […] Data are expressed as the number of test animals having a particular grade of penile response. Penile responses were scored every 10 sec for 1 hour according to the following scale:
Grade 0=glans are hidden from the view
Grade 1=glans are clearly visible
Grade 2=penis is extended
Grade 4=erection with masturbation
Grade 5=erection with masturbation and ejaculation

male rats [2] = assay: Rat sexual behavior, proerectile actions (injected); format: in vivo, SD rats; details: for Erections/60 minutes / Latency to the first erection: mean±sem; for Erections/60 minutes / Latency to the first erection / Responders: n=10
Experimental: Male SD rats (350-450 g; n=10 per group) were injected with increasing doses of XVIb (4.0-64.0 mg/kg), XVIa (1.0, 4.0 or 16 mg/kg) or saline and observed 5 minutes later, in groups of 5, for the number of erections and the time to the first erection, over a 60 minutes observation period.
In Table 2, the effects of XVIb, XVIa and saline on erection in male rats is indicated. Data is expressed as the mean±sem for 10 test animals. Data marked with an asterisk “*” indicate significant difference from saline (α<0.05) as determined by ANOVA with Tukey test for multiple comparisons.

[3] = system: noradrenaline pre-contracted rabbit CC; assay: Direct action on penile erection: tone of corpus cavernosal muscle strips in organ bath; details: concentration from 10^-8 M to 10^-4 M; n=6
Experimental: Corpus cavernosal (CC) muscle strips were prepared from penises obtained from rabbit (n=6). CC strips were dissected free from tunica albungia and mounted in 10 or 25 mL organ baths containing Tyrode solution saturated with 95%O2/5% CO2 mixture.

male rats [4] = assay: Rat sexual behavior, proerectile actions of XVIIa and XVIIb (ip); format: in vivo, SD rats; details: 16 mg/kg ip
Experimental: Male SD rats (250-300 g) were injected with XVIIa (16 mg/kg, ip), XVIIb (16 mg/kg, ip) or distilled water (ip), and observed 5 minutes later for the number of erections (as characterized by penile grooming) and the time to the first erection, over a 60 minute observation period. Six rats at a time, housed singly, were observed by two observers. Treatments were administered in a standard randomized and double blinded manner.

Row | Compound | number of test animals having Grade 0 penile response (glans are hidden from the view) (male primates) | number of test animals having Grade 1 penile response (glans are clearly visible) (male primates) | number of test animals having Grade 2 penile response (penis is extended) (male primates) | number of test animals having Grade 3 penile response (full erection) (male primates) | number of test animals having Grade 4 penile response (erection with masturbation) (male primates) | number of test animals having Grade 5 penile response (erection with masturbation and ejaculation) (male primates) | further results
1 | CC(C)NCC(O)COc1cccc2[nH]ccc12 (racemic) [(±)-Pindolol] | – | – | – | – | – | – | erections after (±)-pindolol pretreatment plus XVIb (male rats [1]; highest dose tested of (±)-pindolol, XVIb 16 mg/kg ip, n=6): 2.0±0.4 erections/60 minutes; antagonism of the erectile promoting actions of XVIb (male rats [1]): antagonized the erectile promoting actions
2 | (±)-trans-[2-(1-(4-methyl)piperazinyl)cyclohexyl]naphthalene-1-acetate monohydrochloride [XVc] | 1 | 2 | 2 | 2 | 2 | 1 | –
3 | CN1CCN(C(=O)Cc2cccc3ccccc23)CC1 [XVIa, 1-Methyl-4(1-naphthaleneacetyl)piperazine monohydrochloride] | 1 | 2 | 2 | 1 | 1 | 0 | Erections/60 minutes (male rats [2]; 1.0 mg/kg): 1.2 ± 0.3; Latency to the first erection (male rats [2]; 1.0 mg/kg): 1929 ± 432 s; Responders (male rats [2]; 1.0 mg/kg): 100%; Erections/60 minutes (male rats [2]; 4.0 mg/kg): 3.0 ± 0.6; Latency to the first erection (male rats [2]; 4.0 mg/kg): 1749 ± 349 s; Responders (male rats [2]; 4.0 mg/kg): 100%; Erections/60 minutes (male rats [2]; 16.0 mg/kg): 5.4 ± 0.7* #; Latency to the first erection (male rats [2]; 16.0 mg/kg): 506 ± 105* sec; Responders (male rats [2]; 16.0 mg/kg): 100%; effect on penile erections (in words) (male rats [2]; 60 minutes observation): increased penile erections, although to a lesser degree than XVIb
4 | O=c1n(CCCN2CCN(c3cccc(Cl)c3)CC2)nc2ccccn12 [Trazodone] | – | – | – | – | – | – | effect on tone of noradrenaline pre-contracted rabbit CC [3]: reduced tone of rabbit CC in a dose dependent manner
5 | 1-methyl-4-trifluoromethylphenylpiperazine | – | – | – | – | – | – | effect on tone of noradrenaline pre-contracted rabbit CC [3]: failed to reduce tone
6 | CN1[C@@H]2C[C@@H](OC(=O)[C@H](CO)c3ccccc3)C[C@H]1[C@@H]1O[C@@H]12 [scopolamine] | – | – | – | – | – | – | antagonism of the erectile promoting actions of XVIb (male rats [1]): antagonized the erectile promoting actions; erections after scopolamine pretreatment plus XVIb (male rats [1]; scopolamine, XVIb 16 mg/kg ip, n=6): 1.2±0.3 erections/60 minutes
7 | CN1CCN(C(=O)Cc2ccc(Cl)c(Cl)c2)CC1 [XVIIa, 1-Methyl-4-(2-(3,4-Dichlorophenyl)acetyl)piperazine Monohydrochloride] | – | – | – | – | – | – | Responders (male rats [4]): 67%; latency to first erection (male rats [4]): 6 min; maximum number of erections/rat (male rats [4]): 3 h⁻¹
8 | (±)-trans-N-[2-(1-(4-methyl)piperazinyl)cyclohexyl]naphthalene-2-acetamide monohydrochloride [XVb] | 1 | 2 | 2 | 1 | 0 | 0 | –
9 | (±)-trans-N-methyl-[2-(1-(4-methyl)piperazinyl)cyclohexyl]naphthalene-1-acetamide monohydrochloride [Compound XVa] | 1 | 2 | 2 | 2 | 2 | 0 | –
10 | COc1ccc(CC(=O)N2CCN(C)CC2)cc1OC [XVIIb, 1-Methyl-4-(3,4-Dimethoxyacetyl)Piperazine Monohydrochloride] | – | – | – | – | – | – | Responders (male rats [4]): 100%; latency to first erection (male rats [4]): 16 min; maximum number of erections/rat (male rats [4]): 5 h⁻¹
